Assay results: patent publication US20150238494A1, “HIGHLY SOLUBLE PURINE BIOACTIVE COMPOUNDS AND COMPOSITIONS THEREOF” (JHO Intellectual Property Holdings, LLC, priority 2014, published 2015)

Experiments:
[1] = Stability of theacrine solution 1.3 mg/ml in USP Type I glass vials, 15 weeks at RT and 40° C.; assay type: physicochemical; settings: 1.3 mg/ml solution, in % (unit assumed)
Experimental: The Table 1 below is data indicating assay results for stability of a theacrine solution prepared at 1.3 mg/ml and stored in USP Type I Glass vials for 15 weeks at RT and 40° C.

[2] = Stability of theacrine solutions 0.1%, 0.2%, 0.4% in USP type I glass vials, 3 months at 40° C.; assay type: physicochemical; settings: Storage 40 C., in % (unit assumed)

SMILES: Cn1c(=O)c2c(n(C)c1=O)n(C)c(=O)n2C [Theacrine, 1,3,7,9-Tetramethyluric acid]
- Assay ([1]; Room Temperature (RT), 1-wk): 98.7
- Assay ([1]; Room Temperature (RT), 2-wk): 100.1
- Assay ([1]; Room Temperature (RT), 4-wk): 99.2
- Assay ([1]; Room Temperature (RT), 8-wk): 99.9
- Assay ([1]; Room Temperature (RT), 15-wk): 99.3
- Assay ([1]; Room Temperature (RT), Initial): 99.6
- Assay ([1]; Storage 40 C., 1-wk): 98.2
- Assay ([1]; Storage 40 C., 2-wk): 98.9
- Assay ([1]; Storage 40 C., 4-wk): 98.7
- Assay ([1]; Storage 40 C., 8-wk): 98.6
- Assay ([1]; Storage 40 C., 15-wk): 98.0
- Assay ([1]; Storage 40 C., Initial): 99.6
- Assay value ([2]; 0.1% Solution, 1-M): 101
- Assay value ([2]; 0.1% Solution, 2-M): 100.4
- Assay value ([2]; 0.1% Solution, 3-M): 100.7
- Assay value ([2]; 0.1% Solution, 10-d): 100.4
- Assay value ([2]; 0.1% Solution, Initial): 100.6
- Assay value ([2]; 0.2% Solution, 1-M): 98.9
- Assay value ([2]; 0.2% Solution, 2-M): 97.5
- Assay value ([2]; 0.2% Solution, 3-M): 99.4
- Assay value ([2]; 0.2% Solution, 10-d): 98.6
- Assay value ([2]; 0.2% Solution, Initial): 99.8
- Assay value ([2]; 0.4% Solution, 1-M): 94.9
- Assay value ([2]; 0.4% Solution, 2-M): 95.3
- Assay value ([2]; 0.4% Solution, 3-M): 95.8
- Assay value ([2]; 0.4% Solution, 10-d): 92.3
- Assay value ([2]; 0.4% Solution, Initial): 94.1
